In patent US6515010B1 (SmithKline Beecham Corporation, priority 1999, dated 2003):
In brackets after ≈: the same amount, converted by molar mass.

Experiments:
physchem [1] = test: physchem
[2] = pKa of carvedilol free base; type: physicochemical
physchem [3] = conditions: 25 °C, water, thermodynamic from solid
[4] = Aqueous solubility at 25° C. of carvedilol and its salt forms; conditions: water

solubility (physchem [1]; pH 4, aqueous buffer) [µg/mL] | solubility (physchem [1]; pH 9, aqueous buffer) [µg/mL] | pKa [2] | solubility at 1 hr (physchem [3]) [µg/mL] | solubility at 24 hr (physchem [3]) [µg/mL] | Compound | aqueous solubility (in words) [4] | Aqueous Solubility ([4]; time 0.5 hr) [mg/mL] | Aqueous Solubility ([4]; time 1 hr) [mg/mL] | Aqueous Solubility ([4]; time 4 hr) [mg/mL] | Aqueous Solubility ([4]; time 70 hr) [mg/mL]
~200 (≈ 492 µM) | < 1 | 7.6 | 9.8 (≈ 24.1 µM) | 11.6 (≈ 28.5 µM) | COc1ccccc1OCCNCC(O)COc1cccc2[nH]c3ccccc3c12 (stereo not shown) [Carvedilol] |  |  |  |  | 
 |  |  |  |  | Hydrochloride | poorly soluble in water | 1.65 | 1.63 | 1.37 | 1.06
